The structures appear in SMILES notation.

Holding throughout (format): in vivo
For experiment [1], the system named is common chickweed (Stellaria media). The experiment can be described thus: Preemergence herbicidal activity, chickweed. To be noted: Rate of Application 0.3 Kg/Ha, examined after 12-17 days.
Experiment [2] concerns common cocklebur (Xanthium strumarium L.). The experiment in a line: Postemergence herbicidal activity, cocklebur. To be noted: rate of application 0.3 Kg/Ha, rated after 12-17 days.
The subject of experiment [3] is blackgrass (Aloepecurus myosuroides). The experiment in a line: Preemergence herbicidal activity, blackgrass. To be noted: Rate of Application 0.3 Kg/Ha, examined after 12-17 days.
In experiment [4] the test system is soybean (Glycine max var. Winchester). The experiment in a line: Postemergence herbicidal activity, soybean. To be noted: rate of application 0.3 Kg/Ha, rated after 12-17 days.
The test system of experiment [5] is morningglory (Ipomea lacunosa or Ipomea hederacea). The experiment can be described thus: Postemergence herbicidal activity, morningglory. The note with it: rate of application 0.3 Kg/Ha, rated after 12-17 days.
Experiment [6] has as its system green foxtail (Setaria viridis). The experiment can be described thus: Postemergence herbicidal activity, green foxtail. To be noted: rate of application 0.3 Kg/Ha, rated after 12-17 days.
The subject of experiment [7] is common cocklebur (Xanthium strumarium L.). The experiment in a line: Preemergence herbicidal activity, cocklebur. The note with it: Rate of Application 0.3 Kg/Ha, examined after 12-17 days.
Experiment [8] concerns velvetleaf (Abutilon theophrasti). The experiment can be described thus: Postemergence herbicidal activity, velvetleaf. The note with it: rate of application 0.3 Kg/Ha, rated after 12-17 days.
Experiment [9] deals with Johnsongrass (Sorghum halepense). The experiment in a line: Postemergence herbicidal activity, johnsongrass. The note with it: rate of application 0.3 Kg/Ha, rated after 12-17 days.
For experiment [10], the system named is field corn (Zea mays var. Pioneer 3732). The experiment in a line: Postemergence herbicidal activity, corn. To be noted: rate of application 0.3 Kg/Ha, rated after 12-17 days.
Experiment [11] deals with wheat (Triticum aestivum var. Lew). The experiment can be described thus: Preemergence herbicidal activity, wheat. The note with it: Rate of Application 0.3 Kg/Ha, examined after 12-17 days.
Experiment [12] concerns green foxtail (Setaria viridis). The experiment can be described thus: Preemergence herbicidal activity, green foxtail. To be noted: Rate of Application 0.3 Kg/Ha, examined after 12-17 days.
Experiment [13] deals with morningglory (Ipomea lacunosa or Ipomea hederacea). The experiment in a line: Preemergence herbicidal activity, morningglory. To be noted: Rate of Application 0.3 Kg/Ha, examined after 12-17 days.
The subject of experiment [14] is field corn (Zea mays var. Pioneer 3732). The experiment in a line: Preemergence herbicidal activity, corn. To be noted: Rate of Application 0.3 Kg/Ha, examined after 12-17 days.
Experiment [15] relates to wheat (Triticum aestivum var. Lew). The experiment in a line: Postemergence herbicidal activity, wheat. The note with it: rate of application 0.3 Kg/Ha, rated after 12-17 days.
The test system of experiment [16] is soybean (Glycine max var. Winchester). The experiment in a line: Preemergence herbicidal activity, soybean. The note with it: Rate of Application 0.3 Kg/Ha, examined after 12-17 days.
Experiment [17] has as its system blackgrass (Aloepecurus myosuroides). The experiment can be described thus: Postemergence herbicidal activity, blackgrass. To be noted: rate of application 0.3 Kg/Ha, rated after 12-17 days.
For experiment [18], the system named is Johnsongrass (Sorghum halepense). The experiment can be described thus: Preemergence herbicidal activity, johnsongrass. The note with it: Rate of Application 0.3 Kg/Ha, examined after 12-17 days.
Experiment [19] deals with velvetleaf (Abutilon theophrasti). The experiment in a line: Preemergence herbicidal activity, velvetleaf. To be noted: Rate of Application 0.3 Kg/Ha, examined after 12-17 days.

For the molecule `Cn1c(C(F)(F)F)cc(=O)n(-c2c(F)cc(Cl)c3cc(C(C)(C)N)oc23)c1=O` [Compound 254], in experiment [1], the “PREEMERGENCE HERBICIDAL ACTIVITY (% CONTROL) STEME” value was 30%. The “Postemergence herbicidal activity (% control) XANPE” value in experiment [2] came out at 95%. Further, the “PREEMERGENCE HERBICIDAL ACTIVITY (% CONTROL) ALOMY” value in experiment [3] is recorded as 60%. In addition, the “Postemergence herbicidal activity (% control) SOY” value in experiment [4] is 95%. In experiment [5], the “Postemergence herbicidal activity (% control) IPOSS” value worked out at 70%. In experiment [6], the “Postemergence herbicidal activity (% control) SETVI” value is 100%. Further, in experiment [7], the “PREEMERGENCE HERBICIDAL ACTIVITY (% CONTROL) XANPE” value was found to be 50%. In addition, the “Postemergence herbicidal activity (% control) ABUTH” value in [8] came out at 100%. In addition, the “Postemergence herbicidal activity (% control) SORHA” value in experiment [9] worked out at 80%. Besides, the “Postemergence herbicidal activity (% control) CRN” value in [10] was found to be 80%. Further, in [11], the “PREEMERGENCE HERBICIDAL ACTIVITY (% CONTROL) WHT” value is 20%. Further, the “PREEMERGENCE HERBICIDAL ACTIVITY (% CONTROL) SETVI” value in [12] amounted to 100%. Moreover, in experiment [13], the “PREEMERGENCE HERBICIDAL ACTIVITY (% CONTROL) IPOSS” value was 50%. In experiment [14], the “PREEMERGENCE HERBICIDAL ACTIVITY (% CONTROL) CRN” value turned out to be 80%. Also, the “Postemergence herbicidal activity (% control) WHT” value in [15] is 40%. The “PREEMERGENCE HERBICIDAL ACTIVITY (% CONTROL) SOY” value in experiment [16] is 25%. The “Postemergence herbicidal activity (% control) ALOMY” value in [17] amounted to 50%. The “PREEMERGENCE HERBICIDAL ACTIVITY (% CONTROL) SORHA” value in experiment [18] amounted to 80%. Also, the “PREEMERGENCE HERBICIDAL ACTIVITY (% CONTROL) ABUTH” value in experiment [19] was 100%.
For the molecule `CC(=O)OCCc1cc2c(Cl)cc(F)c(-n3c(=O)cc(C(F)(F)F)n(C)c3=O)c2o1` [Compound 260], the “PREEMERGENCE HERBICIDAL ACTIVITY (% CONTROL) STEME” value in experiment [1] turned out to be 100%. In experiment [2], the “Postemergence herbicidal activity (% control) XANPE” value is on record as 100%. The “PREEMERGENCE HERBICIDAL ACTIVITY (% CONTROL) ALOMY” value in experiment [3] was 95%. In addition, the “Postemergence herbicidal activity (% control) SOY” value in [4] amounted to 90%. For the same molecule, in experiment [5], the “Postemergence herbicidal activity (% control) IPOSS” value is reported as 100%. Besides, the “Postemergence herbicidal activity (% control) SETVI” value in experiment [6] was 100%. Also, the “PREEMERGENCE HERBICIDAL ACTIVITY (% CONTROL) XANPE” value in [7] is listed as 100%. Besides, the “Postemergence herbicidal activity (% control) ABUTH” value in experiment [8] is on record as 100%. For the same molecule, the “Postemergence herbicidal activity (% control) SORHA” value in experiment [9] is 90%. For the same molecule, the “Postemergence herbicidal activity (% control) CRN” value in experiment [10] came out at 70%. The “PREEMERGENCE HERBICIDAL ACTIVITY (% CONTROL) WHT” value in experiment [11] was found to be 70%. Further, the “PREEMERGENCE HERBICIDAL ACTIVITY (% CONTROL) SETVI” value in [12] is 100%. Moreover, the “PREEMERGENCE HERBICIDAL ACTIVITY (% CONTROL) IPOSS” value in experiment [13] stood at 100%. The “PREEMERGENCE HERBICIDAL ACTIVITY (% CONTROL) CRN” value in experiment [14] stood at 80%. In addition, in experiment [15], the “Postemergence herbicidal activity (% control) WHT” value is 80%. The “PREEMERGENCE HERBICIDAL ACTIVITY (% CONTROL) SOY” value in experiment [16] came to 100%. Further, the “Postemergence herbicidal activity (% control) ALOMY” value in experiment [17] was 90%. Further, the “PREEMERGENCE HERBICIDAL ACTIVITY (% CONTROL) SORHA” value in experiment [18] came out at 100%. Also, the “PREEMERGENCE HERBICIDAL ACTIVITY (% CONTROL) ABUTH” value in experiment [19] is on record as 100%.
As to `Cc1nc2c(-n3c(=O)cc(C(F)(F)F)n(C)c3=O)c(F)cc(Cl)c2[nH]1` [Compound 363], the “PREEMERGENCE HERBICIDAL ACTIVITY (% CONTROL) STEME” value in [1] came to 100%. The “Postemergence herbicidal activity (% control) XANPE” value in [2] worked out at 100%. Further, the “PREEMERGENCE HERBICIDAL ACTIVITY (% CONTROL) ALOMY” value in experiment [3] worked out at 100%. Moreover, the “Postemergence herbicidal activity (% control) SOY” value in experiment [4] came out at 100%. Besides, the “Postemergence herbicidal activity (% control) IPOSS” value in experiment [5] came to 100%. Besides, the “Postemergence herbicidal activity (% control) SETVI” value in [6] is 100%. The “PREEMERGENCE HERBICIDAL ACTIVITY (% CONTROL) XANPE” value in experiment [7] is 100%. The “Postemergence herbicidal activity (% control) ABUTH” value in [8] is on record as 100%. The “Postemergence herbicidal activity (% control) SORHA” value in experiment [9] stood at 100%. Further, the “Postemergence herbicidal activity (% control) CRN” value in [10] is 100%. The “PREEMERGENCE HERBICIDAL ACTIVITY (% CONTROL) WHT” value in experiment [11] was found to be 100%. Besides, the “PREEMERGENCE HERBICIDAL ACTIVITY (% CONTROL) SETVI” value in [12] is 100%. In addition, the “PREEMERGENCE HERBICIDAL ACTIVITY (% CONTROL) IPOSS” value in experiment [13] is reported as 100%. In experiment [14], the “PREEMERGENCE HERBICIDAL ACTIVITY (% CONTROL) CRN” value worked out at 100%. The “Postemergence herbicidal activity (% control) WHT” value in experiment [15] is given as 100%. Moreover, the “PREEMERGENCE HERBICIDAL ACTIVITY (% CONTROL) SOY” value in experiment [16] was 100%. In addition, in experiment [17], the “Postemergence herbicidal activity (% control) ALOMY” value is 100%. Besides, the “PREEMERGENCE HERBICIDAL ACTIVITY (% CONTROL) SORHA” value in experiment [18] is on record as 100%. Moreover, the “PREEMERGENCE HERBICIDAL ACTIVITY (% CONTROL) ABUTH” value in experiment [19] is recorded as 100%.
With `Cn1c(C(F)(F)F)cc(=O)n(-c2c(F)cc(Cl)c3nc(Cc4ccccc4)[nH]c23)c1=O` [Compound 376], the “PREEMERGENCE HERBICIDAL ACTIVITY (% CONTROL) STEME” value in experiment [1] is listed as 100%. For the same molecule, the “Postemergence herbicidal activity (% control) XANPE” value in experiment [2] came to 100%. For the same molecule, the “PREEMERGENCE HERBICIDAL ACTIVITY (% CONTROL) ALOMY” value in experiment [3] is on record as 100%. The “Postemergence herbicidal activity (% control) SOY” value in [4] is recorded as 90%. Also, the “Postemergence herbicidal activity (% control) IPOSS” value in experiment [5] was 100%. Besides, the “Postemergence herbicidal activity (% control) SETVI” value in [6] was 100%. Besides, the “PREEMERGENCE HERBICIDAL ACTIVITY (% CONTROL) XANPE” value in [7] came to 100%. Further, in [8], the “Postemergence herbicidal activity (% control) ABUTH” value is recorded as 100%. Besides, in experiment [9], the “Postemergence herbicidal activity (% control) SORHA” value is 100%. For the same molecule, the “Postemergence herbicidal activity (% control) CRN” value in experiment [10] was determined as 95%. For the same molecule, the “PREEMERGENCE HERBICIDAL ACTIVITY (% CONTROL) WHT” value in [11] was determined as 60%. The “PREEMERGENCE HERBICIDAL ACTIVITY (% CONTROL) SETVI” value in experiment [12] was 100%. The “PREEMERGENCE HERBICIDAL ACTIVITY (% CONTROL) IPOSS” value in [13] is 100%. Further, the “PREEMERGENCE HERBICIDAL ACTIVITY (% CONTROL) CRN” value in experiment [14] was found to be 80%. Also, in experiment [15], the “Postemergence herbicidal activity (% control) WHT” value was 50%. The “PREEMERGENCE HERBICIDAL ACTIVITY (% CONTROL) SOY” value in [16] is given as 50%. For the same molecule, the “Postemergence herbicidal activity (% control) ALOMY” value in experiment [17] worked out at 90%. Moreover, in experiment [18], the “PREEMERGENCE HERBICIDAL ACTIVITY (% CONTROL) SORHA” value amounted to 70%. In experiment [19], the “PREEMERGENCE HERBICIDAL ACTIVITY (% CONTROL) ABUTH” value is on record as 100%.

The record behind these values is US6352958B1, “Cycloimido-substituted benzofused heterocyclic herbicides” (FMC Corporation, priority 1997, dated 2002).
